For `O=C(NCc1ccn(O)c(=O)c1)OCc1cccnc1` [Example 14, Pyridin-3-ylmethyl (1-hydroxy-2-oxo-1,2-dihydropyridin-4-yl)methylcarbamate], the melting point was 145 °C.

Source: US20100298270A1, “Novel Compounds and Methods of Using Them” (SYNDAX PHARMACEUTICALS, INC., priority 2007, published 2010)
